4 molecules from patent publication US10532980B2, “N-methyl pyrazoles” (Prosetta Antiviral, Inc., priority 2015, dated 2020) can be followed below.

Each structure is given as a SMILES string.

For this test, the system named is Influenza A virus (A/WSN/1933(H1N1)). Description: microbe, parasite or virus in culture. In kind it is cell-based. To be noted: MDCK, 24 h with compound, then 2 h drug-free medium.

Turning to `CCOc1c(F)cc(CNC(=O)c2cc(C3CC3)nn2C)cc1Cl` [Compound 43, N-(3-chloro-4-ethoxy-5-fluorobenzyl)-3-cyclopropyl-1-methyl-1H-pyrazole-5-carboxamide], the EC90 (usually the concentration needed for an effect of 90%) was determined as 400 nM. The figure for `CCOc1cc(F)c(CNC(=O)c2cc(C3CC3)nn2C)cc1Cl` [Compound 44, N-(5-chloro-4-ethoxy-2-fluorobenzyl)-3-cyclopropyl-1-methyl-1H-pyrazole-5-carboxamide] is 400 nM; for `Cn1nc(C(C)(C)C)cc1C(=O)NCc1cc(Cl)c2c(c1)OCCCO2` [Compound 45, 3-(tert-butyl)-N-((9-chloro-3,4-dihydro-2H-benzo[b][1,4]dioxepin-7-yl)methyl)-1-methyl-1H-pyrazole-5-carboxamide] it is 1000 nM; for `COc1ccc(F)c(CNC(=O)c2cc(C(C)(C)C)nn2C)c1OC` [Compound 46, 3-(tert-butyl)-N-(6-fluoro-2,3-dimethoxybenzyl)-1-methyl-1H-pyrazole-5-carboxamide] it is 1000 nM.
